Experimental findings from PubChem BioAssay (NCI) are described below.

Test systems include HOP-92 NSCLC; UO-31 renal; CAKI-1 renal; DU-145 prostate; KM12 colon; RPMI-8226 leukemia; RXF 393 renal; IGROV1 ovarian; MOLT-4 leukemia; SK-MEL-2 melanoma.
Experiment in all cases: NCI anticancer screen, dose series, 48 h

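Dose response: 5 concentrations. Exposure: 48 h. Format: 96-well plates. Endpoint: linear interpolation; highest concentration if not reached. GI50 is the concentration that inhibits growth by half. TGI denotes the concentration required for complete inhibition of growth.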 A value given as a limit tells only on which side of the number the result lay.

For the compound `COc1cccc(-c2nn(-c3ccccc3)cc2-c2ccnc(NCCNC(=O)Nc3ccc(Cl)c(Cl)c3)c2)c1`, the GI50 in the test with HOP-92 NSCLC was 1.37 µM; in the test on UO-31 renal it was 1.44 µM; in the test with CAKI-1 renal it was 2.79 µM; in the test on DU-145 prostate, 3.52 µM; with KM12 colon, 2.27 µM; in the test with RPMI-8226 leukemia, 2.6 µM. In addition, the GI50 is 1.2 µM in the test with RXF 393 renal, 3.61 µM with IGROV1 ovarian, 2.31 µM in the test with MOLT-4 leukemia and 2.09 µM with SK-MEL-2 melanoma. Also, the TGI with HOP-92 NSCLC was determined as 5.48 µM; in the test on UO-31 renal, 5.03 µM; with CAKI-1 renal, 11.1 µM; in the test with DU-145 prostate, 12.7 µM; in the test on KM12 colon, 5.79 µM; with RPMI-8226 leukemia, 7.52 µM. Moreover, the TGI in the test on RXF 393 renal came to 3.15 µM; with IGROV1 ovarian, 15.6 µM; in the test with MOLT-4 leukemia, 7.11 µM; in the test with SK-MEL-2 melanoma, 5.17 µM.
Consider `O=C(/C=C/N1CCN(c2cccc(C(F)(F)F)c2)CC1)c1ccc(Cl)cc1Cl`, for which the GI50 was 20.6 µM in the test with HOP-92 NSCLC; 31.3 µM in the test with UO-31 renal; 22.7 µM in the test on CAKI-1 renal; 35.1 µM with DU-145 prostate; 28.1 µM with KM12 colon; 25.9 µM with RPMI-8226 leukemia. Further, the GI50 in the test with RXF 393 renal was 30.9 µM; with IGROV1 ovarian it was 30 µM; in the test on MOLT-4 leukemia, 28.8 µM; in the test on SK-MEL-2 melanoma, 37.5 µM. The TGI was 50.7 µM with HOP-92 NSCLC; over 100 µM in the test on UO-31 renal; 41.3 µM in the test with CAKI-1 renal; over 100 µM in the test with DU-145 prostate; 75.9 µM with KM12 colon; 70.8 µM in the test with RPMI-8226 leukemia. In addition, the TGI is 73.4 µM in the test on RXF 393 renal, 58.2 µM in the test on IGROV1 ovarian, 70.2 µM in the test on MOLT-4 leukemia and over 100 µM in the test on SK-MEL-2 melanoma.
As for `CC[C@]12C=CCN3CC[C@]4(C(=C(C(=O)OC)C1)Nc1cc(O)ccc14)[C@@H]32`, the GI50 was 11.6 µM with HOP-92 NSCLC; 12.9 µM in the test on UO-31 renal; 14.1 µM with CAKI-1 renal; 21.7 µM with DU-145 prostate; 13.1 µM with KM12 colon; 26.2 µM with RPMI-8226 leukemia. The GI50 in the test on RXF 393 renal is 13.3 µM; in the test on IGROV1 ovarian, 19.1 µM; in the test on MOLT-4 leukemia, 21.6 µM; with SK-MEL-2 melanoma, 18.2 µM. The TGI with HOP-92 NSCLC amounted to 26.1 µM; in the test with UO-31 renal it was 25.8 µM; with CAKI-1 renal, 37.1 µM; with DU-145 prostate, 45.3 µM; in the test with KM12 colon it was 30.6 µM; in the test on RPMI-8226 leukemia, 79.8 µM. In addition, the TGI in the test on RXF 393 renal was determined as 28.9 µM; in the test on IGROV1 ovarian, 57.3 µM; with MOLT-4 leukemia it was 74.2 µM; in the test with SK-MEL-2 melanoma, 48.6 µM.
For the compound `Nc1ncnc2occ(-c3ccc(NC(=O)Nc4cc(C(F)(F)F)cc(C(F)(F)F)c4)cc3)c12`, the GI50 was 0.977 µM in the test with HOP-92 NSCLC; 1.93 µM with UO-31 renal; 2.6 µM in the test on CAKI-1 renal; 3.59 µM in the test with DU-145 prostate; 0.0916 µM with KM12 colon; 3.68 µM with RPMI-8226 leukemia. In addition, the GI50 in the test with RXF 393 renal was 1.24 µM; with IGROV1 ovarian, 3.05 µM; in the test with MOLT-4 leukemia, 4.16 µM; with SK-MEL-2 melanoma it was 3.72 µM. Moreover, the TGI was 4.42 µM in the test on HOP-92 NSCLC; 6.89 µM in the test on UO-31 renal; 10 µM in the test with CAKI-1 renal; 7.34 µM in the test on DU-145 prostate; 3.95 µM in the test on KM12 colon; 16.4 µM in the test on RPMI-8226 leukemia. For the same compound, the TGI was determined as 4.51 µM in the test on RXF 393 renal, 9.94 µM with IGROV1 ovarian, 17.8 µM in the test on MOLT-4 leukemia and 7.47 µM in the test with SK-MEL-2 melanoma.
Take `CCOP(=O)(OCC)/C(C#N)=C\c1cccc2ccccc12`: the TGI is 93.6 µM with HOP-92 NSCLC; over 100 µM in the test on UO-31 renal; over 100 µM with CAKI-1 renal; over 100 µM with DU-145 prostate; over 100 µM in the test with KM12 colon; over 66.5 µM in the test on RPMI-8226 leukemia. In addition, the TGI in the test on RXF 393 renal, in the test on IGROV1 ovarian, with MOLT-4 leukemia and with SK-MEL-2 melanoma was over 100 µM in each case.
As to `O=C(N[C@@H]1CCCc2ccccc21)[C@H](CCC(=O)N1CCN(C2CCCCC2)CC1)N1C(=O)[C@@H](N2C(=O)OC[C@@H]2c2ccccc2)[C@H]1/C=C/c1ccccc1`, the GI50 with HOP-92 NSCLC is 1.58 µM; in the test on UO-31 renal, 2.01 µM; with CAKI-1 renal, 1.92 µM; in the test with DU-145 prostate it was 2.9 µM; with KM12 colon, 2.62 µM; in the test with RPMI-8226 leukemia, 1.54 µM. In addition, the GI50 is 1.71 µM in the test with RXF 393 renal, 2.44 µM with IGROV1 ovarian, 2.27 µM in the test with MOLT-4 leukemia and 1.92 µM in the test with SK-MEL-2 melanoma. Further, the TGI is 5.18 µM with HOP-92 NSCLC; 8.68 µM with UO-31 renal; 6.8 µM in the test on CAKI-1 renal; 19.3 µM with DU-145 prostate; 11.6 µM with KM12 colon; 5.34 µM in the test on RPMI-8226 leukemia. For the same compound, the TGI in the test on RXF 393 renal is 3.34 µM; with IGROV1 ovarian, 41.3 µM; in the test with MOLT-4 leukemia, over 100 µM; with SK-MEL-2 melanoma, 4.29 µM.
With `COc1ccc2nc3ccc(OC)cc3c(SCCCN)c2c1`, the GI50 with HOP-92 NSCLC is 3.59 µM; in the test on UO-31 renal, 3.91 µM; with CAKI-1 renal, 9.79 µM; in the test with DU-145 prostate, 1.81 µM; in the test on KM12 colon, 4.52 µM; with RPMI-8226 leukemia it was 1.78 µM. Further, the GI50 is 2.42 µM in the test on RXF 393 renal, 8.46 µM in the test with IGROV1 ovarian, 2.2 µM with MOLT-4 leukemia and 6.05 µM in the test with SK-MEL-2 melanoma. Also, the TGI in the test on HOP-92 NSCLC is 13.1 µM; in the test on UO-31 renal it was 18.3 µM; with CAKI-1 renal it was 26 µM; with DU-145 prostate, 3.26 µM; in the test on KM12 colon, 20.5 µM; with RPMI-8226 leukemia, 3.92 µM. In addition, the TGI came out at 9.85 µM in the test on RXF 393 renal, 27.2 µM in the test on IGROV1 ovarian, 6.34 µM in the test with MOLT-4 leukemia and 11.7 µM with SK-MEL-2 melanoma.
Consider `O=C1c2cccnc2C(=O)c2c1c(C(=O)OCCCN1CCOCC1)c1ccccn21`, for which the GI50 in the test on HOP-92 NSCLC is 0.151 µM; in the test on CAKI-1 renal it was under 0.01 µM; in the test with DU-145 prostate, under 0.01 µM; with KM12 colon, 0.0333 µM; with RPMI-8226 leukemia it was 0.0252 µM; in the test on RXF 393 renal, under 0.01 µM. Besides, the GI50 in the test on IGROV1 ovarian was 0.0163 µM; in the test on MOLT-4 leukemia, 0.135 µM; in the test on SK-MEL-2 melanoma it was 0.0205 µM. In addition, the TGI in the test on HOP-92 NSCLC amounted to 0.929 µM; with CAKI-1 renal, 0.0509 µM; in the test with DU-145 prostate it was 1.29 µM; in the test with KM12 colon, 15.4 µM; with RPMI-8226 leukemia, 1.13 µM; in the test with RXF 393 renal it was 0.0235 µM. Moreover, the TGI in the test on IGROV1 ovarian came to 3.2 µM; with MOLT-4 leukemia, 12.5 µM; in the test on SK-MEL-2 melanoma it was 0.0569 µM.
